Patent publication US8044094B2, “Agents for preventing and treating disorders connected to impaired neurotransmission” (DSM IP Assets B.V., priority 2004, dated 2011)

Key:
MAO-B = molecular target: T1, MAO-B (Homo sapiens, UniProt P27338); assay: MAO-B inhibition, Amplex Red Monoamine Oxidase Assay Kit, colorimetric; format: biochemical
T1 construct: purchased Sigma M7441
T1 sequence (P27338 1-520): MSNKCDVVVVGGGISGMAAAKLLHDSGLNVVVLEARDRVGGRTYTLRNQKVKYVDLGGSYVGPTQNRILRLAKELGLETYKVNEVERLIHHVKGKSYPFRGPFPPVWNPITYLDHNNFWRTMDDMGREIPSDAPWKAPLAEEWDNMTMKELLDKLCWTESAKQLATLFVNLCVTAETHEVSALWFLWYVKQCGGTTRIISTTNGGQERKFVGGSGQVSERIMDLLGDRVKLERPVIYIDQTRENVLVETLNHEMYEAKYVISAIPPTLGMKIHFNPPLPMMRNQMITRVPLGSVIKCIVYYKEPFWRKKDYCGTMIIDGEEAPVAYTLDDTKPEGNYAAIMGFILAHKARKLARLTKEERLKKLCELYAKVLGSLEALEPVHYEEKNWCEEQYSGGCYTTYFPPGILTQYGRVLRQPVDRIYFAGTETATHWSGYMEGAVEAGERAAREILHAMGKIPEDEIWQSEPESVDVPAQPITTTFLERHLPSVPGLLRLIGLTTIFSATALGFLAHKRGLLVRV
Experimental: (§1) From a stock solution of 0.0405 g of racemic obliquin (92.5%; equal to 37.5 mg of pure compound) in 750 μl of dimethylsulfoxide (DMSO), working solutions were prepared with a concentration of obliquin of 4. 10^−4M in reaction buffer (0.05 M sodium phosphate, pH 7.4, 0.2% DMSO). The final concentrations of obliquin in the test system were 10^−4 M, 10^−5 M, 10^−6 M, 10^−7 M.
(§2) For determining the inhibition of monoaminoxidases' activity, the Amplex Red Monoamine Oxidase Assay Kit (Molecular Probes Nr._A-12214, Colorimetric version) was conducted according to manufacturers instructions.
(§3) As substrates for MAO-A enzyme (Sigma Nr. M7316) p-tyramine and as substrate for MAO-B enzyme (Sigma Nr. M7441) benzylamine were used. The concentration of MAO-A enzyme was 8 Units/ml, and that of MAO-B 4 Units/ml in the working solution.
(§4) MAO-A and MAO-B Assay, Colorimetric Version:
(§5) For the assay, 50 μl of each working solution (see above) were used. As control solution, the obliquin containing working solution was replaced by 50 μl of the reaction buffer.
(§6) 50 μl of diluted MAO-A with a final concentration of 2 Units/ml and 50 μl of diluted MAO-B with a final concentration of 1 Unit/ml, respectively, were added.
(§7) 100 μl of the Amplex solution containing horseradish peroxidase (2 U/ml) and the substrate tyramine (for MAO-A) or the substrate benzylamine (for MAO-B) were added.
(§8) To allow a subtraction of the background absorption a mixture of 100 μl of the Amplex solution and 100 μl of the reaction buffer was measured as a “blank”.
(§9) The samples were incubated at room temperature in the dark for 1 hour, and then the extinction at 535 nm determined in a Softmax Microplate photometer (Molecular Device).

[1] = molecular target: human serotonin re-uptake transporter (hSERT) (Homo sapiens, UniProt P31645); assay: Labeled citalopram displacement from hSERT containing membranes (SPA); format: binding; settings: hSERT containing membranes; Ki from IC50 by Cheng-Prusoff; 3.3 nM (3H) citalopram; read-out: Inhibition constant Ki for tritiated citalopram displacement
Chain of human serotonin re-uptake transporter (hSERT) (P31645 whole entry): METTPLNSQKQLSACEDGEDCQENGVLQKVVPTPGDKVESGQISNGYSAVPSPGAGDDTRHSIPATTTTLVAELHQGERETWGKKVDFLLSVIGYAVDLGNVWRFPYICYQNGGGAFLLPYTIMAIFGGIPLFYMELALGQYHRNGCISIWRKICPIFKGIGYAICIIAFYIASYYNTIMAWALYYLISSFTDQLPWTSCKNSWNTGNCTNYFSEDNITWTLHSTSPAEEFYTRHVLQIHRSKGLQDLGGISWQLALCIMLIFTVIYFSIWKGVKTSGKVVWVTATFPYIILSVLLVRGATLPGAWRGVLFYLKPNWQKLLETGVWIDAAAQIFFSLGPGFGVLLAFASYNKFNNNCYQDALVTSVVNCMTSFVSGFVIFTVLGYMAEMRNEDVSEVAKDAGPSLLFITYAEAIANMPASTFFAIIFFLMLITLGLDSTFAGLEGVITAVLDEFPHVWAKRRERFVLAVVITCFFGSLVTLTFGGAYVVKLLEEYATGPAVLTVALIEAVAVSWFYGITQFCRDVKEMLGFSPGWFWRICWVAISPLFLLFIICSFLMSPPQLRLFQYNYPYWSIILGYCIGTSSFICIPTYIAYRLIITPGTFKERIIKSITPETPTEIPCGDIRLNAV
Experimental: Membranes containing hSERT were prepared from the above cell line according to Galli et al, Journal of Experimental Biology 1995, 198, 2197-2212. 3 μg of membrane protein and 0.8 mg of wheat germ aglutinin coated SPA® (scintillation proximity assay) beads (Amersham Biosciences GE Healthcare, Slough, UK) per data point were mixed with radio-labeled (3H) citalopram (Amersham Biosciences GE Healthcare, Slough, UK) until a final concentration of 3.3 nM in 50 mM Tris-HCl, 300 mM NaCl (pH 7.4). After incubation for 18 hours at room temperature, the bound citalopram was quantified by liquid scintillation counting.
The effect of the coumarin ethers of formula I on the serotonin uptake and the citalopram binding was determined by its inclusion in the assay at a range of concentrations between 0.03 and 100 μM for 10 minutes prior to and during the addition of (3H) serotonin/citalopram. Serotonin uptake via the transporter and citalopram binding were both inhibited by the coumarin ethers of formula I in a dose dependent manner. The calculated inhibition constants Ki, derived from the measured IC50 using the Cheng—Prusoff equation (Y. C. Cheng, W. H. Prusoff, Biochem. Pharmacol. 1973, 22, p. 3099-3108), for inhibition of serotonin uptake and citalopram binding by coumarin ethers of the formula I are shown in Table 1.

MAO-A = molecular target: T2, MAO-A (Homo sapiens, UniProt P21397); assay: MAO-A inhibition, Amplex Red Monoamine Oxidase Assay Kit, colorimetric; format: biochemical; settings: substrate p-tyramine
T2 construct: purchased Sigma M7316
T2 sequence (P21397 1-527): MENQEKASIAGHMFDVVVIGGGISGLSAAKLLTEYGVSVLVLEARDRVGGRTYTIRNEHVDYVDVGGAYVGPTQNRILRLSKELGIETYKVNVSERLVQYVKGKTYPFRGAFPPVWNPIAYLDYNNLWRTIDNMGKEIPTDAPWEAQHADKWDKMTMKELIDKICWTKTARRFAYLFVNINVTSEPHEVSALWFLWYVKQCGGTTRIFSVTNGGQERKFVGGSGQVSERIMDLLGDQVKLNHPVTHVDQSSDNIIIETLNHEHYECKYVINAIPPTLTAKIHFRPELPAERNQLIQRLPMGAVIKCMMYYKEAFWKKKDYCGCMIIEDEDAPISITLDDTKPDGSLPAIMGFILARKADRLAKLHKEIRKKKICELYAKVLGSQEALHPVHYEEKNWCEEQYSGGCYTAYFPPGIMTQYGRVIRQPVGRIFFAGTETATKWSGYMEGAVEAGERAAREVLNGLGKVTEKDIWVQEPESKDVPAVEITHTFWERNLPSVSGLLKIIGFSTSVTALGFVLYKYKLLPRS
Experimental: as §1, §2, §3, §4, §5, §6, §7, §8, §9

## C=C(C)[C@H]1COc2cc3oc(=O)ccc3cc2O1 (racemic) [Obliquin, obliquin]
MAO-B; compared with MAO-A
  MAO inhibition specificity MAO-B versus MAO-A: higher specificity for MAO-B than for MAO-A
MAO-B; obliquin 1 x 10^−7 M, substrate benzylamine
  inhibition at 0.1 µM: 8.3%
MAO-B; obliquin 10 x 10^−7 M, substrate benzylamine
  inhibition at 1 µM: 33.3%
MAO-B; obliquin 100 x 10^−7 M, substrate benzylamine
  inhibition at 10 µM: 76.9%
MAO-B; obliquin 1000 x 10^−7 M, substrate benzylamine
  inhibition at 100 µM: 91.5%
[1]
  Ki: 6.1 µM
MAO-A; obliquin 1 x 10^−7 M
  inhibition at 0.1 µM: 2%
MAO-A; obliquin 10 x 10^−7 M
  inhibition at 1 µM: 2%
MAO-A; obliquin 100 x 10^−7 M
  inhibition at 10 µM: 6.5%
MAO-A; obliquin 1000 x 10^−7 M
  inhibition at 100 µM: 24.1%
